One experiment deals with GSPT1. As to the kind of experiment: Western blot, degradation of substrate protein in hPBMCs. The experiment is classed as cell-based, Human. (A western blot detects proteins with antibodies after separation by electrophoresis.)
Experiment [1] addresses T1, human Cereblon WT GST-tagged protein (Homo sapiens, UniProt Q96SW2).
T1 construct: purchased CISBIO 64BDCRBNPEH
As to the kind of experiment: CRBN-binding affinity, HTRF (CEREBLON BINDING kit). To be noted: for inhibition at 0.5 µM: read-out: Inhibition Rate at 0.5 µM (%); for inhibition at 2 µM: read-out: Inhibition Rate at 2 µM (%). A general note: In TR-FRET formats the signal depends on donor and acceptor labels being close together.

The target of a further experiment is T2, IKZF3 (Homo sapiens, UniProt Q96SW2+Q9UKT9).
T2 construct: effects of the compounds of the present disclosure on the expression of target proteins in cells; endogenous in cells; host or cells: human PBMCs (Milecell Biotechnologies)
As to the kind of experiment: Western blot, degradation of substrate protein in hPBMCs. The experiment is classed as cell-based.

The next experiment concerns the target T3, CK1α (Homo sapiens, UniProt P48729+Q96SW2).
T3 construct: effects of the compounds of the present disclosure on the expression of target proteins in cells; endogenous in cells; host or cells: human PBMCs (Milecell Biotechnologies)
The experiment is described as above. The experiment is classed as cell-based.

The target in another experiment is T4, WEE1 (Homo sapiens, UniProt P30291+Q96SW2).
T4 construct: effects of the compounds of the present disclosure on the expression of target proteins in cells; endogenous in cells; host or cells: human PBMCs (Milecell Biotechnologies)
The description is as above. Format: cell-based.

The target in another experiment is T5, IKZF2 (Homo sapiens, UniProt Q96SW2+Q9UKS7).
T5 construct: effects of the compounds of the present disclosure on the expression of target proteins in cells; endogenous in cells; host or cells: human PBMCs (Milecell Biotechnologies)
The experiment is described as above. The experiment is classed as cell-based.

The next experiment has as its target T6, IKZF1 (Homo sapiens, UniProt Q13422+Q96SW2).
T6 construct: effects of the compounds of the present disclosure on the expression of target proteins in cells; endogenous in cells; host or cells: human PBMCs (Milecell Biotechnologies)
The description is as above. The experiment is classed as cell-based.

Setting [2] is: Western blot, 24 hours of compound treatment, compounds tested at 50 nM and 500 nM (concentration for the table not stated).
The mark [3] stands for this setting: 24 hours treatment, compounds at 50 nM and 500 nM (concentration behind the class not stated).

Broadly, the inhibition is the change of the read-out against control, counted positive when it falls.

T4 sequence (P30291 whole entry): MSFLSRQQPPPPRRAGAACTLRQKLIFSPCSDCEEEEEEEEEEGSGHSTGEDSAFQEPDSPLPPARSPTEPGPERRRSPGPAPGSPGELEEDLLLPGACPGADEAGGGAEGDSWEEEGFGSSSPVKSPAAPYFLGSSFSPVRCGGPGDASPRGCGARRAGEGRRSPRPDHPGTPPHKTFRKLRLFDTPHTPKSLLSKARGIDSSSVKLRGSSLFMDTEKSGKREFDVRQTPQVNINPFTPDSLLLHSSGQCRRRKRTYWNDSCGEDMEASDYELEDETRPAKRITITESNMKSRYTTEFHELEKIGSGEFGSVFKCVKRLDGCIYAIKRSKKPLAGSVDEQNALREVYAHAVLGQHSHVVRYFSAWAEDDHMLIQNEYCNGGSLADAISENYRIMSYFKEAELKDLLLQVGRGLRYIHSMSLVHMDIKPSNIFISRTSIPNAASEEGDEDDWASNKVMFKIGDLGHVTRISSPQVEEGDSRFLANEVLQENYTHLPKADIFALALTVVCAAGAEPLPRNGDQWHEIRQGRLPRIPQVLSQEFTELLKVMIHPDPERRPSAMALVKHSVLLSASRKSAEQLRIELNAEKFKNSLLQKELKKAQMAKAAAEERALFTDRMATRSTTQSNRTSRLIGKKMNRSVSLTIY
T4 sequence (Q96SW2 whole entry): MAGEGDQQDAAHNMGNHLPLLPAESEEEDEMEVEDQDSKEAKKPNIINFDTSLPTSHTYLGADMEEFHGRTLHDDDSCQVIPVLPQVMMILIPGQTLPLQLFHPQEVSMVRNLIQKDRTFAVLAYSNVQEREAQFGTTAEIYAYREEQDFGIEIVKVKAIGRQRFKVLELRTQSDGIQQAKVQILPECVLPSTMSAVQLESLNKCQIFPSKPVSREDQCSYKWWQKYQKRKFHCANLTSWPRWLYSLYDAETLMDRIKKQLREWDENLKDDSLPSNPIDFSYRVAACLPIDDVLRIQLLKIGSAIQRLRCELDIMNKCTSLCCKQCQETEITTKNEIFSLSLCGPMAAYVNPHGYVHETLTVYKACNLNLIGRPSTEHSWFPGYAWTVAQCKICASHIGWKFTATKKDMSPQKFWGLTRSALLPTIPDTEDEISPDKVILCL
T4 sequence (Q16531 whole entry partner): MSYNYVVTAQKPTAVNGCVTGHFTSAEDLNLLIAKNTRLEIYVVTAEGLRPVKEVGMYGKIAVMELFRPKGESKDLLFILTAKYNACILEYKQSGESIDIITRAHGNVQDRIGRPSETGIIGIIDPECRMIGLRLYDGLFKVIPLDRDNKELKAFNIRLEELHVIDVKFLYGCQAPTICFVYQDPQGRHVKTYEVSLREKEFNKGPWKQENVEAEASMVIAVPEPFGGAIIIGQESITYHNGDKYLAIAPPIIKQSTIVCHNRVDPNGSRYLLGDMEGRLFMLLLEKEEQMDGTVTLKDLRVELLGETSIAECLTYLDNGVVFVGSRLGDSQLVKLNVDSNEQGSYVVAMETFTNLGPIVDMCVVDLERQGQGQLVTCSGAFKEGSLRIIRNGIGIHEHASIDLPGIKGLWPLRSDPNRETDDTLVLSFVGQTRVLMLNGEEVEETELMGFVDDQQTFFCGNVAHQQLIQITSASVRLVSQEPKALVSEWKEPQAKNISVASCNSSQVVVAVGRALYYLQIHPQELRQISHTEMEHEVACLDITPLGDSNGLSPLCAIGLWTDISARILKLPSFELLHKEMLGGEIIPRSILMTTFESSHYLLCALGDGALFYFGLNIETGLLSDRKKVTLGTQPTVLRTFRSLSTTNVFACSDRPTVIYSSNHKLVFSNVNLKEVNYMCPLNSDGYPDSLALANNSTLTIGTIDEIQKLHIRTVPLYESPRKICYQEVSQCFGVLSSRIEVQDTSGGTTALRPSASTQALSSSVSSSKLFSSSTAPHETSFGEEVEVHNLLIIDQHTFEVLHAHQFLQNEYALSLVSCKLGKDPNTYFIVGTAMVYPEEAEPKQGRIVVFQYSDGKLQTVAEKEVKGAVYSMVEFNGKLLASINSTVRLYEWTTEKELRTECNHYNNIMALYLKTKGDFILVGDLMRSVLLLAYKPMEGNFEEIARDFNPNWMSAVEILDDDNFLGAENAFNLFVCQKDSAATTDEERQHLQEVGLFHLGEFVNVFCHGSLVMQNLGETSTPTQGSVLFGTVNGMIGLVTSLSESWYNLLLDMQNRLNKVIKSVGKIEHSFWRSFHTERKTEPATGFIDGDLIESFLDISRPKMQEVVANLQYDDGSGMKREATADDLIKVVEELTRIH
T6 sequence (Q13422 whole entry): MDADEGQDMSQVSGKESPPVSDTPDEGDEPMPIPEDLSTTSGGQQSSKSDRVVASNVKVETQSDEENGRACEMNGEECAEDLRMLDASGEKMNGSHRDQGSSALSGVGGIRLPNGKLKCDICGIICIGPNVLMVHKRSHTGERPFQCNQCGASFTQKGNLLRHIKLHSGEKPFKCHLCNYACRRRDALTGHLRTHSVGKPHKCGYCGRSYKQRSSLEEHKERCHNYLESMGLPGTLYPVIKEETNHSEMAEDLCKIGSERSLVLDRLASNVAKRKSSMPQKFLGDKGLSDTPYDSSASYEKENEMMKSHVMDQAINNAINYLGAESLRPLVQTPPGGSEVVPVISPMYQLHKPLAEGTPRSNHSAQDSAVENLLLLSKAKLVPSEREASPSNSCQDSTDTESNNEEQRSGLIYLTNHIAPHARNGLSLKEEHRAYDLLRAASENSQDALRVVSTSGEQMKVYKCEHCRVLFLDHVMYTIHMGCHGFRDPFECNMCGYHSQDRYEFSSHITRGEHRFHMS
T6 sequence (Q96SW2 whole entry): as the sequence (Q96SW2 whole entry) above
T6 sequence (Q16531 whole entry partner): as the sequence (Q16531 whole entry partner) above
T1 sequence (Q96SW2 whole entry): as the sequence (Q96SW2 whole entry) above
T3 sequence (P48729 whole entry): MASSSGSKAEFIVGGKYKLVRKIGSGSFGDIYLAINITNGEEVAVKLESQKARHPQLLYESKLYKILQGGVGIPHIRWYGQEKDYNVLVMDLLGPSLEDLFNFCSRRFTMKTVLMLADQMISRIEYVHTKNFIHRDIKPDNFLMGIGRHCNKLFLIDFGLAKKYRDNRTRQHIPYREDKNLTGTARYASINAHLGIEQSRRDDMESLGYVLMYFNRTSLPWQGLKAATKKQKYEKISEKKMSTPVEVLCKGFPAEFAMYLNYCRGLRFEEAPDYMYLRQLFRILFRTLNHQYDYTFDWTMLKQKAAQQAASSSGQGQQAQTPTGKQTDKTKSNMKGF
T3 sequence (Q96SW2 whole entry): as the sequence (Q96SW2 whole entry) above
T3 sequence (Q16531 whole entry partner): as the sequence (Q16531 whole entry partner) above
T2 sequence (Q9UKT9 whole entry): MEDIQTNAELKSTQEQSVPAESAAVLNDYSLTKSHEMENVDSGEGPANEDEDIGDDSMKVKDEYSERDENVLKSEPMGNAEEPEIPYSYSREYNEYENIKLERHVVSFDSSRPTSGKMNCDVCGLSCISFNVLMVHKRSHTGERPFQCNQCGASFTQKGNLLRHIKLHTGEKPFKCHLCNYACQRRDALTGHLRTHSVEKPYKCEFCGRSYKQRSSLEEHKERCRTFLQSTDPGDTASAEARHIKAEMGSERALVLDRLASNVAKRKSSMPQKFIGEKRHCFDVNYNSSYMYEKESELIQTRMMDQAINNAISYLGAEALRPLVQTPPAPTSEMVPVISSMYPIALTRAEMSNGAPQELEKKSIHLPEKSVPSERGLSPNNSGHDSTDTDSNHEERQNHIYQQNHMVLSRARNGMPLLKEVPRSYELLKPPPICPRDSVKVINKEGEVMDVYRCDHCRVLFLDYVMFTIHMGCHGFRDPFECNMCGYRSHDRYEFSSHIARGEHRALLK
T2 sequence (Q96SW2 whole entry): as the sequence (Q96SW2 whole entry) above
T2 sequence (Q16531 whole entry partner): as the sequence (Q16531 whole entry partner) above
T5 sequence (Q9UKS7 whole entry): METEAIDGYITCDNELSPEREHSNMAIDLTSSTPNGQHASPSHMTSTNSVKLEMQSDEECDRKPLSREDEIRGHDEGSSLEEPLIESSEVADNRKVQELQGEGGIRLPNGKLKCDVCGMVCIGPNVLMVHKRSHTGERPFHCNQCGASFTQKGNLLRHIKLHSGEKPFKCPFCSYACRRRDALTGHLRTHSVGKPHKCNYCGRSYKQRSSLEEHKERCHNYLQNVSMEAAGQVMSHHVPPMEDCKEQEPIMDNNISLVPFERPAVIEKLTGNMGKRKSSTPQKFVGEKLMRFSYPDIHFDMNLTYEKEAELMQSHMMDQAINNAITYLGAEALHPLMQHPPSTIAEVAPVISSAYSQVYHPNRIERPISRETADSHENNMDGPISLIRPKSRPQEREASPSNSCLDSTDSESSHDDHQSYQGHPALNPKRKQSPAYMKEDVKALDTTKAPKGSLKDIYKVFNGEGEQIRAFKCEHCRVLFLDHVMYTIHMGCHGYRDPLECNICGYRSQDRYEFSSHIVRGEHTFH
T5 sequence (Q96SW2 whole entry): as the sequence (Q96SW2 whole entry) above
T5 sequence (Q16531 whole entry partner): as the sequence (Q16531 whole entry partner) above

Regarding `O=C1CCC(N2Cc3cc(CN4CCCN(C(c5ccccc5)c5ccccc5)CC4)ccc3C2=S)C(=O)N1` (centres unmarked) [GT-07848, 3-(5-((4-benzhydryl-1,4-diazepan-1-yl)methyl)-1-thioxoisoindolin-2-yl)piperidine-2,6-dione], the “GSPT1 substrate protein remaining %” value in the experiment with GSPT1 (setting [2]) is “A (0% ≤ substrate protein remaining % ≤ 80%)”. Further, in experiment [1], the inhibition at 0.5 µM lay in the range of 30 to 40% and the inhibition at 2 µM is 80 to 100%. Further, the “IKZF3 substrate protein remaining %” value on IKZF3 (setting [2]) was “A (0% ≤ substrate protein remaining % ≤ 80%)”. The “CK1α substrate protein remaining %” value at CK1α (setting [2]) was “B (80%< substrate protein remaining %≤ 100%)”. Besides, the “Wee1 substrate protein remaining %” value at WEE1 (setting [2]) was “B (80%< substrate protein remaining %≤ 100%)”. Besides, the “IKZF2 substrate protein remaining %” value on IKZF2 (setting [2]) is given as “A (0% ≤ substrate protein remaining % ≤ 80%)”. In addition, the “IKZF 1 substrate protein remaining %” value on IKZF1 (setting [2]) is on record as “B (80%< substrate protein remaining %≤ 100%)”.

Regarding `CC1(C)CCC(CN2CC3CC(C2)N3Cc2ccc3c(c2)CN(C2CCC(=O)NC2=O)C3=S)=C(c2ccc(Cl)cc2)C1` (centres unmarked) [GT-08160, 3-(5-((3-((4'-chloro-5,5-dimethyl-3,4,5,6-tetrahydro-[1,1'-biphenyl]-2-yl)methyl)-3,6-diazabicyclo[3.1.1]heptan-6-yl)methyl)-1-thioxoisoindolin-2-yl)piperidine-2,6-dione], the “GSPT1 substrate protein remaining %” value in the experiment on GSPT1 (setting [3]) is “A (0% ≤ substrate protein remaining % ≤ 80%)”. For the same compound, in experiment [1], the inhibition at 0.5 µM was in the range of 53 to 60% and the inhibition at 2 µM fell in the range of 80 to 100%. Besides, at IKZF3 (setting [3]), the “IKZF3 substrate protein remaining %” value is “A (0% ≤ substrate protein remaining % ≤ 80%)”. The “CK1α substrate protein remaining %” value on CK1α (setting [3]) is on record as “B (80%< substrate protein remaining %≤ 100%)”. Moreover, the “Wee1 substrate protein remaining %” value at WEE1 (setting [3]) was “A (0% ≤ substrate protein remaining % ≤ 80%)”. The “IKZF2 substrate protein remaining %” value at IKZF2 (setting [3]) is reported as “A (0% ≤ substrate protein remaining % ≤ 80%)”. In addition, on IKZF1 (setting [3]), the “IKZF 1 substrate protein remaining %” value is recorded as “B (80%< substrate protein remaining %≤ 100%)”.

With `CC1(C)CCC(CN2C3CC2CN(Cc2ccc4c(c2)CN(C2CCC(=O)NC2=O)C4=S)C3)=C(c2ccc(Cl)cc2)C1` (centres unmarked) [GT-08161, 3-(5-((6-((4'-chloro-5,5-dimethyl-3,4,5,6-tetrahydro-[1,1'-biphenyl]-2-yl)methyl)-3,6-diazabicyclo[3.1.1]heptan-3-yl)methyl)-1-thioxoisoindolin-2-yl)piperidine-2,6-dione], the “GSPT1 substrate protein remaining %” value in the experiment on GSPT1 (setting [3]) is given as “A (0% ≤ substrate protein remaining % ≤ 80%)”. Also, in experiment [1], the inhibition at 0.5 µM is 40 to 53% and the inhibition at 2 µM was in the range of 80 to 100%. At IKZF3 (setting [3]), the “IKZF3 substrate protein remaining %” value was “A (0% ≤ substrate protein remaining % ≤ 80%)”. In addition, the “CK1α substrate protein remaining %” value on CK1α (setting [3]) was “B (80%< substrate protein remaining %≤ 100%)”. Besides, the “Wee1 substrate protein remaining %” value on WEE1 (setting [3]) is listed as “A (0% ≤ substrate protein remaining % ≤ 80%)”. Besides, on IKZF2 (setting [3]), the “IKZF2 substrate protein remaining %” value is given as “A (0% ≤ substrate protein remaining % ≤ 80%)”. The “IKZF 1 substrate protein remaining %” value at IKZF1 (setting [3]) is given as “B (80%< substrate protein remaining %≤ 100%)”.

Turning to `CC1(C)CCC(CN2C3CCC2CN(Cc2ccc4c(c2)CN(C2CCC(=O)NC2=O)C4=S)C3)=C(c2ccc(Cl)cc2)C1` (centres unmarked) [GT-08162, 3-(5-((8-((4'-chloro-5,5-dimethyl-3,4,5,6-tetrahydro-[1,1'-biphenyl]-2-yl)methyl)-3,8-diazabicyclo[3.2.1]octan-3-yl)methyl)-1-thioxoisoindolin-2-yl)piperidine-2,6-dione], in the experiment with GSPT1 (setting [3]), the “GSPT1 substrate protein remaining %” value is listed as “B (80%< substrate protein remaining %≤ 100%)”. For the same compound, in experiment [1], the inhibition at 0.5 µM is 30 to 40% and the inhibition at 2 µM was in the range of 60 to 80%. On IKZF3 (setting [3]), the “IKZF3 substrate protein remaining %” value is recorded as “B (80%< substrate protein remaining %≤ 100%)”. The “CK1α substrate protein remaining %” value on CK1α (setting [3]) is reported as “B (80%< substrate protein remaining %≤ 100%)”. Further, the “Wee1 substrate protein remaining %” value on WEE1 (setting [3]) was “A (0% ≤ substrate protein remaining % ≤ 80%)”. On IKZF2 (setting [3]), the “IKZF2 substrate protein remaining %” value is given as “B (80%< substrate protein remaining %≤ 100%)”. Also, the “IKZF 1 substrate protein remaining %” value on IKZF1 (setting [3]) was “B (80%< substrate protein remaining %≤ 100%)”.

Consider `CC1(C)CCC(CN2CC3CCC(C2)N3Cc2ccc3c(c2)CN(C2CCC(=O)NC2=O)C3=S)=C(c2ccc(Cl)cc2)C1` (centres unmarked) [GT-08163, 3-(5-((3-((4'-chloro-5,5-dimethyl-3,4,5,6-tetrahydro-[1,1'-biphenyl]-2-yl)methyl)-3,8-diazabicyclo[3.2.1]octan-8-yl)methyl)-1-thioxoisoindolin-2-yl)piperidine-2,6-dione], for which, in the experiment with GSPT1 (setting [3]), the “GSPT1 substrate protein remaining %” value is “A (0% ≤ substrate protein remaining % ≤ 80%)”. In experiment [1], the inhibition at 0.5 µM lay in the range of 53 to 60% and the inhibition at 2 µM was 60 to 80%. The “IKZF3 substrate protein remaining %” value at IKZF3 (setting [3]) is recorded as “B (80%< substrate protein remaining %≤ 100%)”. The “CK1α substrate protein remaining %” value at CK1α (setting [3]) is reported as “B (80%< substrate protein remaining %≤ 100%)”. Moreover, on WEE1 (setting [3]), the “Wee1 substrate protein remaining %” value was “A (0% ≤ substrate protein remaining % ≤ 80%)”. Also, on IKZF2 (setting [3]), the “IKZF2 substrate protein remaining %” value is “B (80%< substrate protein remaining %≤ 100%)”. Also, the “IKZF 1 substrate protein remaining %” value on IKZF1 (setting [3]) is given as “A (0% ≤ substrate protein remaining % ≤ 80%)”.

Take `O=C1CCC(N2Cc3cc(CN4CCN(CC5=C(c6ccc(F)cc6)CCCC5)CC4)ccc3C2=S)C(=O)N1` (centres unmarked) [GT-08164, 3-(5-((4-((4'-fluoro-3,4,5,6-tetrahydro-[1,1'-biphenyl]-2-yl)methyl)piperazin-1-yl)methyl)-1-thioxoisoindolin-2-yl)piperidine-2,6-dione]: in the experiment on GSPT1 (setting [3]), the “GSPT1 substrate protein remaining %” value is recorded as “A (0% ≤ substrate protein remaining % ≤ 80%)”. In experiment [1], the inhibition at 0.5 µM fell in the range of 40 to 53% and the inhibition at 2 µM was in the range of 80 to 100%. Also, at IKZF3 (setting [3]), the “IKZF3 substrate protein remaining %” value is “A (0% ≤ substrate protein remaining % ≤ 80%)”. Further, at CK1α (setting [3]), the “CK1α substrate protein remaining %” value is “B (80%< substrate protein remaining %≤ 100%)”. Also, the “Wee1 substrate protein remaining %” value at WEE1 (setting [3]) is listed as “A (0% ≤ substrate protein remaining % ≤ 80%)”. Further, the “IKZF2 substrate protein remaining %” value on IKZF2 (setting [3]) is “A (0% ≤ substrate protein remaining % ≤ 80%)”. The “IKZF 1 substrate protein remaining %” value on IKZF1 (setting [3]) is “A (0% ≤ substrate protein remaining % ≤ 80%)”.

Turning to `CC1(C)CC(c2ccc(Cl)cc2)=C(CN2CCN(Cc3ccc4c(c3)CN(C3CCC(=O)NC3=O)C4=S)CC2)CO1` (centres unmarked) [GT-08167, 3-(5-((4-((4-(4-chlorophenyl)-6,6-dimethyl-5,6-dihydro-2H-pyran-3-yl)methyl)piperazin-1-yl)methyl)-1-thioxoisoindolin-2-yl)piperidine-2,6-dione], the “GSPT1 substrate protein remaining %” value in the experiment with GSPT1 (setting [3]) is recorded as “A (0% ≤ substrate protein remaining % ≤ 80%)”. Further, in experiment [1], the inhibition at 0.5 µM lay in the range of 40 to 53% and the inhibition at 2 µM is 80 to 100%. In addition, the “IKZF3 substrate protein remaining %” value on IKZF3 (setting [3]) is “A (0% ≤ substrate protein remaining % ≤ 80%)”. On CK1α (setting [3]), the “CK1α substrate protein remaining %” value is given as “B (80%< substrate protein remaining %≤ 100%)”. In addition, the “Wee1 substrate protein remaining %” value at WEE1 (setting [3]) is reported as “A (0% ≤ substrate protein remaining % ≤ 80%)”. The “IKZF2 substrate protein remaining %” value at IKZF2 (setting [3]) is “A (0% ≤ substrate protein remaining % ≤ 80%)”. For the same compound, the “IKZF 1 substrate protein remaining %” value on IKZF1 (setting [3]) is reported as “B (80%< substrate protein remaining %≤ 100%)”.

These data come from patent EP4745135A1 (Gluetacs Therapeutics (Shanghai) Co., Ltd., priority 2023, dated 2025).
